Measured values published in patent US7795229B2, “Serum cholesterol lowering agent or preventative or therapeutic agent for atherosclerosis” (Kotobuki Pharmaceutical Co., Ltd., priority 2003, dated 2010).

Experiments:
cholesterol-fed rat = assay: Serum cholesterol lowering action in cholesterol-fed rat; type: in vivo; conditions: for Reduction % of serum cholesterol value: cholesterol-fed rat, value to control
Procedure: Male Splague-Dawley rats weighing 300˜500 g (Nihon SLC Co. Ltd.) were fed MF-2 chow (Nihon Crea Co. Ltd.) until study onset. At the study onset, the chow was changed to MF-2 chow containing 1% cholesterol and 0.5% cholic acid. […] Twenty hours after the last administration, blood was collected from the abdominal aorta under ether anaesthesia, and serum was separated. The cholesterol value was measured using Cholesterol E Test Wako (Wako Pure Chemical Co. Ltd.). […] The experimental 5 and 6 indicates the combined dosage examples in the present invention. Each reduction percent is shown as the value to control.
Except of the use of compound 37 instead of compound 56, quietly same experiment to pharmacological experiment 1 was carried out. Each reduction % is shown as the value to control.

[1] = alone, 1 mg/kg/day, once a day for 7 days
[2] = alone, 0.03 mg/kg/day, once a day for 7 days
[3] = alone, 0.3 mg/kg/day, once a day for 7 days
[4] = combined dosage: compound 0.3 mg/kg/day + atorvastatin 1 mg/kg/day
[5] = combined dosage: compound 0.3 mg/kg/day + atorvastatin 1 mg/kg/day, 7 days
[6] = combined dosage: compound 0.3 mg/kg/day + fenofibrate 10 mg/kg/day
[7] = combined dosage: compound 0.3 mg/kg/day + fenofibrate 10 mg/kg/day, 7 days

Q: Which “Reduction % of serum cholesterol value” (cholesterol-fed rat; [1]) does the source give for `CC(C)c1c(C(=O)Nc2ccccc2)c(-c2ccccc2)c(-c2ccc(F)cc2)n1CC[C@@H](O)C[C@@H](O)CC(=O)O` [Atorvastatin, atorvastatin, reference compound] here?
A: The value was 6.2%.

Q: Which results are given for `O=C1[C@H](CC[C@H](O)c2ccc(F)cc2)[C@@H](c2ccc([C@@H]3O[C@H](CO)[C@@H](O)[C@H](O)[C@H]3O)cc2)N1c1ccccc1` [Compound 37]?
A: Reduction % of serum cholesterol value (cholesterol-fed rat; [2]): 5.6%; Reduction % of serum cholesterol value (cholesterol-fed rat; [3]): 18.0%; Reduction % of serum cholesterol value (cholesterol-fed rat; [1]): 31.0%; Combination effect on reduction % of serum cholesterol versus sum of agents alone (cholesterol-fed rat; [4]): synergistic effect; Reduction % of serum cholesterol value (cholesterol-fed rat; [5]): 31.5%; Combination effect on reduction % of serum cholesterol versus sum of agents alone (cholesterol-fed rat; [6]): synergistic effect; Reduction % of serum cholesterol value (cholesterol-fed rat; [7]): 39.5%; melting point: 80 to 82 °C

Q: With `O=C1[C@H](CC[C@H](O)c2ccc(F)cc2)[C@@H](c2ccc(CCC[C@@H]3O[C@H](CO)[C@@H](O)[C@H](O)[C@H]3O)cc2)N1c1ccc(F)cc1` [Compound 48] as the molecule, how does the melting point read?
A: The melting point was 81 to 83 °C.

Q: Which melting point does the source give for `O=C1[C@H](CC[C@H](O)c2ccc([C@H]3O[C@@H](CO)[C@H](O)[C@@H](O)[C@@H]3O)cc2)C(c2ccc(F)cc2)N1c1ccc(F)cc1` (stereo partly drawn) [Compound 49] here?
A: Its melting point is 111 to 113 °C.

Q: With `O=C1[C@H](CC[C@H](O)c2ccc(F)cc2)[C@@H](c2ccc(CCCOC[C@@H]3O[C@H](CO)[C@@H](O)[C@H](O)[C@H]3O)cc2)N1c1ccc(F)cc1` [Compound 50] as the molecule, how does the melting point read?
A: The melting point was 61 to 63 °C.

Q: For `O=C1[C@H](CC[C@H](O)c2ccc(F)cc2)[C@@H](c2ccc(/C=C/COC[C@@H]3O[C@H](CO)[C@@H](O)[C@H](O)[C@H]3O)cc2)N1c1ccc(F)cc1` [Compound 51], which melting point is on record?
A: Its melting point is 65 to 67 °C.

Q: Which melting point does the source give for `O=C1[C@H](CC[C@H](O)c2ccc(F)cc2)[C@@H](c2ccc(/C=C/CC[C@@H]3O[C@H](CO)[C@@H](O)[C@H](O)[C@H]3O)cc2)N1c1ccc(F)cc1` [Compound 52] here?
A: Its melting point is 79 to 81 °C.

Q: Which melting point does the source give for `O=C1[C@H](CC[C@H](O)c2ccc(F)cc2)[C@@H](c2ccc(CCCC[C@@H]3O[C@H](CO)[C@@H](O)[C@H](O)[C@H]3O)cc2)N1c1ccc(F)cc1` [Compound 53] here?
A: The melting point was 81 to 83 °C.

Q: For `O=C1[C@H](CC[C@H](O)c2ccc(F)cc2)[C@@H](c2ccc(/C=C/CCC[C@@H]3O[C@H](CO)[C@@H](O)[C@H](O)[C@H]3O)cc2)N1c1ccc(F)cc1` [Compound 54], which melting point is on record?
A: Its melting point is 69 to 71 °C.

Q: For `O=C1[C@H](CC[C@H](O)c2ccc(F)cc2)[C@@H](c2ccc(CCCCC[C@@H]3O[C@H](CO)[C@@H](O)[C@H](O)[C@H]3O)cc2)N1c1ccc(F)cc1` [Compound 55], which melting point is on record?
A: Its melting point is 66 to 68 °C.

Q: With `O=C1[C@H](CC[C@H](O)c2ccc(F)cc2)[C@@H](c2ccc(CC[C@@H]3O[C@H](CO)[C@@H](O)[C@H](O)[C@H]3O)cc2)N1c1ccccc1` [Compound 56] as the molecule, how does the “Reduction % of serum cholesterol value” (cholesterol-fed rat; [2]) read?
A: The value was 1.9%.

Q: What about the “Reduction % of serum cholesterol value” (cholesterol-fed rat; [3]) of the same molecule?
A: The value was 6.9%.

Q: And the “Reduction % of serum cholesterol value” (cholesterol-fed rat; [1])?
A: The value was 33.5%.

Q: And the “Combination effect on reduction % of serum cholesterol versus sum of agents alone” value (cholesterol-fed rat; [4])?
A: Its value is “synergistic effect”.

Q: And the “Reduction % of serum cholesterol value” (cholesterol-fed rat; [5])?
A: The value was 20.2%.

Q: What about the “Combination effect on reduction % of serum cholesterol versus sum of agents alone” value (cholesterol-fed rat; [6]) of the same molecule?
A: Its value is “synergistic effect”.

Q: What about the “Reduction % of serum cholesterol value” (cholesterol-fed rat; [7]) of the same molecule?
A: The value was 41.3%.

Q: And the melting point?
A: Its melting point is 82 to 84 °C.

Q: With `Cc1ccc(N2C(=O)[C@H](CC[C@H](O)c3ccc(F)cc3)[C@H]2c2ccc(CC[C@@H]3O[C@H](CO)[C@@H](O)[C@H](O)[C@H]3O)cc2)cc1` [Compound 57] as the molecule, how does the melting point read?
A: The melting point was 116 to 118 °C.

Q: With `O=C(O)[C@H]1O[C@@H](CCc2ccc([C@@H]3[C@@H](CC[C@H](O)c4ccc(F)cc4)C(=O)N3c3ccccc3)cc2)[C@H](O)[C@@H](O)[C@@H]1O` [Compound 58] as the molecule, how does the melting point read?
A: Its melting point is 110 to 112 °C.
